Key:
Type in all cases: cell-based
Calu-3 (lung cancer) = assay: In vitro cytotoxicity of camptothecin analogues (CellTiter-Glo); details: Homo sapiens, Calu-3, 96 h; 4 d incubation, growth inhibition by CellTiter-Glo; read-out: pIC50 Calu-3 (converted)
Description: Cytotoxicity of the camptothecin analogues was assessed in vitro on the following cancer cell lines: SK-BR-3 (breast cancer), SKOV-3 (ovarian cancer), Calu-3 (lung cancer), ZR-75-1 (breast cancer) and MDA-MB-468 (breast cancer).
Briefly, serial dilutions of camptothecin analogues shown in Table 5.1 were prepared in RPMI 1640+10% FBS, and 20 uL of each dilution was added to 384-well plates. Cells cultured in log-phase growth were detached by brief incubation in 0.05% Trypsin and resuspended in respective culturing media at 20,000 cells/mL (with the exception of ZR-75 cells, which were resuspended at 10,000 cells/mL). 50 uL of cell suspension was then added to the plates containing test articles. Cells were incubated with test articles for 4 d at 37° C. (with the exception of ZR-75 cells, which were incubated for 5 d). Growth inhibition was assessed by CellTiter-Glo® (Promega Corporation, Madison, WI) and luminescence was measured on a Synergy™ H1 plate reader (BioTek Instruments, Winooski, VT). IC50 values were determined by GraphPad Prism (GraphPad Software, San Diego, CA).

[1] = system: EBC-1 (lung carcinoma; FRα-negative) spheroids; assay: In vitro cytotoxicity of anti-FRα ADCs, 3D spheroids; details: monoculture spheroids, 6-day treatment
Description: (§1) The cytotoxicity capabilities of select ADCs from Example 12 were assessed in a panel of FRα-expressing cell line spheroids as described below. Cell lines used were IGROV-1 (ovarian adenocarcinoma), T-47D (breast carcinoma), OVCAR-3 (ovarian adenocarcinoma), HEC-1-A (uterine adenocarcinoma) and EBC-1 (lung carcinoma; FRα-negative).
(§2) Briefly, cells were seeded in Ultra-Low Attachment 384-well plates, centrifuged and incubated under standard culturing conditions to allow for spheroid formation and growth. Monoculture cell line spheroids were then treated with a titration of test article, generated in cell growth medium. Spheroids were incubated for 6 days under standard culturing conditions. After incubation, CellTiter-Glo® 3D reagent (Promega Corporation, Madison, WI) was spiked in all wells. Plates were incubated in the dark at room temperature for 1 hour and luminescence was quantified using a BioTek Cytation 5 Cell Imaging Multi-Mode Reader (Agilent Technologies, Inc., Santa Clara, CA). Based on blank wells (no test article added), percent cytotoxicity values were calculated and plotted against test article concentration using GraphPad Prism 9 software (GraphPad Software, San Diego, CA).

[2] = system: OVCAR-3 (ovarian adenocarcinoma) spheroids; assay: as above; details: monoculture spheroids, 6-day treatment
Description: as §1, §2

[3] = system: T-47D (breast carcinoma) spheroids; assay: as above; details: monoculture spheroids, 6-day treatment
Description: as §1, §2

[4] = system: HEC-1-A (uterine adenocarcinoma) spheroids; assay: as above; details: monoculture spheroids, 6-day treatment
Description: as §1, §2

[5] = system: IGROV-1 (ovarian adenocarcinoma) spheroids; assay: as above; details: monoculture spheroids, 6-day treatment
Description: as §1, §2

## CC[C@@]1(O)C(=O)OCc2c1cc1n(c2=O)Cc2c-1nc1cc(F)c(OC)cc1c2CNC(=O)NCc1ccc(N)cc1 [Compound 135, (S)-1-(4-aminobenzyl)-3-((4-ethyl-8-fluoro-4-hydroxy-9-methoxy-3,14-dioxo-3,4,12,14-tetrahydro-1H-pyrano[3′,4′: 6,7]indolizino[1,2-b]quinolin-11-yl)methyl)urea]
Calu-3 (lung cancer)
  IC50: 25.1 nM

## v21995-MC-GGFG-DXd: "ADCs comprising the antibody palivizumab (v21995) were used as non-targeted controls"; drug-linker MC-GGFG-DXd
[1]
  EC50: 24.4 nM
[2]
  EC50: 46 nM
[3]
  EC50: 17.8 nM
[4]
  EC50: 27.6 nM
[5]
  EC50: 16.7 nM

— US20240269309A1, “CAMPTOTHECIN ANALOGUES, CONJUGATES AND METHODS OF USE” (priority 2021, published 2024)
